Measurements taken from US4760088A, “Biocidal derivatives of catechins” (Board of Control of Michigan Technological University, priority 1986, dated 1988).
Values after ≈ are worked out from the molar mass of the structure shown. Where two headings read alike, the source gives them in different places.

Tests used:
Type in all cases: cell-based
[1] = system: Wolfiporia cocos; experiment: Biocidal effect on wood-destroying fungi, brown-rotters (agar plate mycelium growth); settings: no growth observed, malt extract agar, 26° C., max. tested 1000 ppm, read-out: Minimum Inhibitory Concentration (MIC)
Protocol: (§1) Tests were made to determine the biocidal properties of the epicatechin-4-alkylsulfides prepared in Examples 1 and 2 on different wood-rotting fungi and bacteria.
(§2) Agar plates containing the epicatechin-4-alkylsulfide to be tested were prepared by adding one part of an ethanol solution containing a known concentration of the test compound to 99 parts of molten malt extract agar. After thorough mixing, the medium was poured into 8 cm petri dishes. When the agar had cooled and hardened, the plates were inoculated by placing in the center of the plate a 5 mm diameter plug taken from an agar plate containing an actively growing culture of the test organism and incubated at 26° C. The diameter of the mycelium formed was measured when the culture on a control plate (containing no test compound) had reached the perimeter of the petri dish, or after seven days, whichever came first. Three duplicates were run for each test compound/test organism combination.

[2] = system: Geophyllum trabeum; experiment: as above; settings: no growth observed; malt extract agar, 26° C.; max. tested 1000 ppm; read-out: Minimum Inhibitory Concentration (MIC)
Protocol: as §1, §2

[3] = system: Poria placenta; experiment: as above; settings: no growth observed; malt extract agar, 26° C.; max. tested 1000 ppm; read-out: Minimum Inhibitory Concentration (MIC)
Protocol: as §1, §2

[4] = system: Klebsiella pneumoneae; experiment: Biocidal effect on bacteria, gram-negative (agar plate); settings: 24 h, read-out: Minimum Inhibitory Concentration (MIC)
Protocol: as §1
(§3) Agar plates containing the test compounds were made as above, but with brain-heart infusion agar. The plates were inoculated with a standardized suspension of bacterial cells using a calibrated 3 mm loop and incubated at 35° C. After one day (two days for Micrococcus luteus), the number of resulting bacteria cultures were counted. Streptomycin was used under the same conditions on each test organism for a comparison.

[5] = system: Escherchia coli; experiment: as above; settings: 24 h; no colonies observed; brain-heart infusion agar, 35° C., one day; max. tested 500 ppm; read-out: Minimum Inhibitory Concentration (MIC)
Protocol: as §1, §3

[6] = system: Phanerochaete chrysosporium; experiment: Biocidal effect on wood-destroying fungi, white-rotters (agar plate mycelium growth); settings: Phanerodontia chrysosporium; no growth observed; malt extract agar, 26° C.; max. tested 1000 ppm; read-out: Minimum Inhibitory Concentration (MIC)
Protocol: as §1, §2

[7] = system: Coriolus versicolor; experiment: as above; settings: Trametes versicolor; no growth observed; malt extract agar, 26° C.; max. tested 1000 ppm; read-out: Minimum Inhibitory Concentration (MIC)
Protocol: as §1, §2

[8] = system: Pycnoporus cinnabarinus; experiment: as above; settings: Trametes cinnabarina; no growth observed; malt extract agar, 26° C.; max. tested 1000 ppm; read-out: Minimum Inhibitory Concentration (MIC)
Protocol: as §1, §2

[9] = system: Streptococcus faciens; experiment: Biocidal effect on bacteria, gram-positive (agar plate); settings: 24 h, read-out: Minimum Inhibitory Concentration (MIC)
Protocol: as §1, §3

[10] = system: Micrococcus liteus; experiment: as above; settings: 48 h, read-out: Minimum Inhibitory Concentration (MIC)
Protocol: as §1, §3

[11] = system: Bacillus cereus; experiment: as above; settings: 24 h, read-out: Minimum Inhibitory Concentration (MIC)
Protocol: as §1, §3

[12] = system: Lecythophora hoffmannii; experiment: Biocidal effect on wood-destroying fungi, soft-rotters (agar plate mycelium growth); settings: Coniochaeta hoffmannii; no growth observed; malt extract agar, 26° C.; max. tested 1000 ppm; read-out: Minimum Inhibitory Concentration (MIC)
Protocol: as §1, §2

[13] = system: Chaetomium globosom; experiment: as above; settings: no growth observed, malt extract agar, 26° C., max. tested 1000 ppm, read-out: Minimum Inhibitory Concentration (MIC)
Protocol: as §1, §2

[14] = system: Scytalidium lignicola; experiment: as above; settings: no growth observed, malt extract agar, 26° C., max. tested 1000 ppm, read-out: Minimum Inhibitory Concentration (MIC)
Protocol: as §1, §2

[15] = system: fungi; experiment: Fungicidal effect against a variety of fungi (overall statement); settings: at the concentrations tested
Protocol: as §1, §2

[16] = system: Pseudomonas aeruginosa; experiment: Biocidal effect on bacteria, gram-negative (agar plate); settings: 24 h, read-out: Minimum Inhibitory Concentration (MIC)
Protocol: as §1, §3

[17] = system: Enterobacter cloacae; experiment: as above; settings: 24 h, read-out: Minimum Inhibitory Concentration (MIC)
Protocol: as §1, §3

[18] = system: bacteria; experiment: Bactericidal effect (overall statement); settings: at the concentrations tested
Protocol: as §1, §3

[19] = system: gram-positive bacteria; experiment: Effect against gram-positive bacteria compared with streptomycin (overall statement); settings: versus streptomycin under the same conditions
Protocol: as §1, §3

[20] = no colonies observed, brain-heart infusion agar, 35° C., one day, max. tested 500 ppm
[21] = no colonies observed, brain-heart infusion agar, 35° C., two days, max. tested 500 ppm

Row | SMILES | MIC [1] [µg/mL] | MIC [2] [µg/mL] | MIC [3] [µg/mL] | MIC [4, 20] [µg/mL] | MIC [5] [µg/mL] | MIC [6] [µg/mL] | MIC [7] [µg/mL] | MIC [8] [µg/mL] | MIC [9, 20] [µg/mL] | MIC [10, 21] [µg/mL] | MIC [11, 20] [µg/mL] | MIC [12] [µg/mL] | MIC [13] [µg/mL] | MIC [14] [µg/mL] | fungicidal properties [15] | MIC [16, 20] [µg/mL] | MIC [17, 20] [µg/mL] | further results
1 | CCCCCCCCCCCCSC1c2c(O)cc(O)cc2OC(c2ccc(O)c(O)c2)C1O (stereo not shown) [C12] | 1000 | 1000 | 1000 | 500 (≈ 1020 µM) | 500 (≈ 1020 µM) | 1000 | 1000 | 1000 | 75 (≈ 153 µM) | 50 (≈ 102 µM) | 50 (≈ 102 µM) | 1000 | 1000 | 100 | – | – | – | –
2 | CCCCCCCCSC1c2c(O)cc(O)cc2OC(c2ccc(O)c(O)c2)C1O (stereo not shown) [C8] | 1000 | 1000 | 250 | 500 (≈ 1150 µM) | 500 (≈ 1150 µM) | 100 | 250 | 1000 | 60 (≈ 138 µM) | 40 (≈ 92 µM) | 20 (≈ 46 µM) | 400 | 1000 | 25 | effective fungicide | – | – | –
3 | CCCCCCCCCCCCCCCCSC1c2c(O)cc(O)cc2OC(c2ccc(O)c(O)c2)C1O (stereo not shown) [C16] | – | 1000 | 1000 | 500 (≈ 914 µM) | 500 (≈ 914 µM) | 1000 | 1000 | – | 100 (≈ 183 µM) | 75 (≈ 137 µM) | 75 (≈ 137 µM) | 1000 | – | 200 | – | 50 (≈ 91.4 µM) | 500 (≈ 914 µM) | –
4 | CCCCCCSC1c2c(O)cc(O)cc2OC(c2ccc(O)c(O)c2)C1O (stereo not shown) [C6] | 500 | 1000 | 500 | 500 (≈ 1230 µM) | 300 (≈ 738 µM) | 250 | 800 | 500 | 200 (≈ 492 µM) | 50 (≈ 123 µM) | 80 (≈ 197 µM) | 800 | 500 | 80 | – | 500 (≈ 1230 µM) | 300 (≈ 738 µM) | –
5 | Oc1cc(O)c2c(c1)O[C@H](c1ccc(O)c(O)c1)[C@H](O)C2 [Epicatechin, reference compound] | – | – | – | – | – | – | – | – | – | – | – | – | – | – | no fungicidal | – | – | bactericidal properties [18]: minimal bactericidal properties
6 | CCCCCCCCCCSC1c2c(O)cc(O)cc2OC(c2ccc(O)c(O)c2)C1O (stereo not shown) [C10] | – | 1000 | 1000 | 500 (≈ 1080 µM) | 500 (≈ 1080 µM) | 50 | 200 | – | 30 (≈ 64.8 µM) | 5 (≈ 10.8 µM) | 5 (≈ 10.8 µM) | 300 | – | 8 | effective fungicide | 300 (≈ 648 µM) | 500 (≈ 1080 µM) | effectiveness against gram-positive bacteria compared with streptomycin [19]: substantially more effective
7 | [H]/N=C(/N)N[C@H]1[C@H](O)[C@@H](O)[C@H](O[C@@H]2O[C@@H](C)[C@](O)(C=O)[C@H]2O[C@@H]2O[C@@H](CO)[C@H](O)[C@@H](O)[C@@H]2NC)[C@@H](N/C(N)=N\[H])[C@@H]1O [Strep, Streptomycin, reference compound] | – | – | – | – | 5 (≈ 8.6 µM) | – | – | – | – | – | – | – | – | – | – | – | – | MIC [4]: 8 µg/mL (≈ 13.8 µM); MIC [16]: 50 µg/mL (≈ 86 µM); MIC [17]: 1 µg/mL (≈ 1.72 µM); MIC [9]: 50 µg/mL (≈ 86 µM); MIC [10]: 8 µg/mL (≈ 13.8 µM); MIC [11]: 20 µg/mL (≈ 34.4 µM)
